Biological target: T1, ΔF508-CFTR (Homo sapiens, UniProt P13569, DEL508-508)
T1 construct: expressed in transfected cells; host or cells: NIH3T3 mouse fibroblasts, stably expressing, temperature-corrected at 27 °C
Assay: Membrane potential optical assay, identification of potentiator compounds
Format: cell-based
Settings: assay not specified; ΔF508-CFTR potentiation, NIH 3T3 cells
Excerpt: Membrane Potential Optical Methods for Assaying ΔF508-CFTR Modulation Properties of Compounds
The assay utilizes fluorescent voltage sensing dyes to measure changes in membrane potential using a fluorescent plate reader (e.g., FLIPR III, Molecular Devices, Inc.) as a readout for increase in functional ΔF508-CFTR in NIH 3T3 cells. The driving force for the response is the creation of a chloride ion gradient in conjunction with channel activation by a single liquid addition step after the cells have previously been treated with compounds and subsequently loaded with a voltage sensing dye.
Identification of Potentiator Compounds
To identify potentiators of ΔF508-CFTR, a double-addition HTS assay format was developed. This HTS assay utilizes fluorescent voltage sensing dyes to measure changes in membrane potential on the FLIPR III as a measurement for increase in gating (conductance) of ΔF508 CFTR in temperature-corrected ΔF508 CFTR NIH 3T3 cells. The driving force for the response is a ion gradient in conjunction with channel activation with forskolin in a single liquid addition step using a fluorescent plate reader such as FLIPR III after the cells have previously been treated with potentiator compounds (or DMSO vehicle control) and subsequently loaded with a redistribution dye.
Bath Solution #1: (in mM) NaCl 160, KCl 4.5, CaCl2 2, MgCl2 1, HEPES 10, pH 7.4 with NaOH. […]

T1 sequence (P13569 with tags, fused parts or gaps DEL508-508): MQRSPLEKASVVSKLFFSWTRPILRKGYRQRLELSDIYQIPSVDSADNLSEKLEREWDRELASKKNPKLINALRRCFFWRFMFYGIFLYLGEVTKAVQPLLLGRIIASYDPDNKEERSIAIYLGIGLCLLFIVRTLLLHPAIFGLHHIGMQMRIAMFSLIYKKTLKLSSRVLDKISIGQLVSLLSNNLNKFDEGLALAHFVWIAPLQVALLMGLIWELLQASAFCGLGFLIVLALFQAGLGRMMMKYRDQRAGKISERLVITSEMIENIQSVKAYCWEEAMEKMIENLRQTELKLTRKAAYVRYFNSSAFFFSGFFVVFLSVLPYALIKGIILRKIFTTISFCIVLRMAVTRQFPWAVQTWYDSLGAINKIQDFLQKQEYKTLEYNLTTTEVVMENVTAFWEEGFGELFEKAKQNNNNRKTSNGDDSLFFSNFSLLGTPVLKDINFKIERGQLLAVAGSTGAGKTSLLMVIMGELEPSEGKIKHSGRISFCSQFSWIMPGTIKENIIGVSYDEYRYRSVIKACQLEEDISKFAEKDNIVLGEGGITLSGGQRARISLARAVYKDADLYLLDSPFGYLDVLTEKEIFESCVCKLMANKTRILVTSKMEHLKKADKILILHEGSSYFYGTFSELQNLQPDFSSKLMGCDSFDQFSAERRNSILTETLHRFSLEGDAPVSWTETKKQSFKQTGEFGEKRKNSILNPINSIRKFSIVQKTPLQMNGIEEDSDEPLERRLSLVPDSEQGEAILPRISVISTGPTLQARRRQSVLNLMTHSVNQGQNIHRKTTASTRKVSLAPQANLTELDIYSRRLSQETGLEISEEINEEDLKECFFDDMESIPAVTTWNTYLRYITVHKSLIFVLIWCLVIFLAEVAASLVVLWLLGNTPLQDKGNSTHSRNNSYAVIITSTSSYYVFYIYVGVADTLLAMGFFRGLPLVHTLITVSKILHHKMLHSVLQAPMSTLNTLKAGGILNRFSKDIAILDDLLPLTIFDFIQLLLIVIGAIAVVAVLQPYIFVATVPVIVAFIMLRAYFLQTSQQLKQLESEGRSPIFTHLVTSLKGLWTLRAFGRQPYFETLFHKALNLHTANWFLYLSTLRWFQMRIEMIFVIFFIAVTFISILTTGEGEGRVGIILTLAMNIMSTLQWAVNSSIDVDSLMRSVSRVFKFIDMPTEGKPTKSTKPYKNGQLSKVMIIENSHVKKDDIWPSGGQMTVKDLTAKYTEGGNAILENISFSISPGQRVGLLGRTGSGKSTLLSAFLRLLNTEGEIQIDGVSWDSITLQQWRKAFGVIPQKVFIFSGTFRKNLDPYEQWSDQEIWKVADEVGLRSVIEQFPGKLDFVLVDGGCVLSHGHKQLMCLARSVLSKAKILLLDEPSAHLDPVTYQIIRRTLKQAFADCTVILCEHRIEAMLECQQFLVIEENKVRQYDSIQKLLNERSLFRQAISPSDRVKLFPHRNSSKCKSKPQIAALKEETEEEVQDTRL

Q: Which EC50 does the source give for `O=C(Nc1ccc(N2C3CCC2CC3)cc1C(F)(F)F)c1c[nH]c2cccc(C(F)(F)F)c2c1=O` [Compound 1 Form A, N-(4-(7-azabicyclo[2.2.1]heptan-7-yl)-2-(trifluoromethyl)phenyl)-4-oxo-5-(trifluoromethyl)-1,4-dihydroquinoline-3-carboxamide] here?
A: < 2000 nM

Reference: US8754222B2, “Process for preparing modulators of cystic fibrosis transmembrane conductance regulator” (Vertex Pharmaceuticals Incorporated, priority 2009, dated 2014)
